The source of these data is US10647725B2, “Anti-infective 2-aminothiophenes” (priority 2016, dated 2020).

Values after ≈ are worked out from the molar mass of the structure shown.

For the assay, the system named is Mtb strains INH-R1, INH-R2, RIF-R1, RIF-R2, FQ-R1. The assay can be described thus: microbe, parasite or virus in culture. The format is cell-based. The settings on record: Mycobacterium tuberculosis; read-out: MIC against resistant isolates.

Turning to `CCOC(=O)c1c(NC(=O)c2c(F)c(F)c(F)c(F)c2F)sc2c1CCN(CC)C2` [4{3,3,0}, ethyl 6-ethyl-2-(perfluorobenzamido)-4,5,6,7-tetrahydrothieno[2,3-c]pyridine-3-carboxylate], the MIC lay within 0.2 to 0.44 µM (≈ 0.0897 to 0.197 µg/mL).
